ChEMBL document CHEMBL3507680, “University of Dundee, Gates Library screen for HepG2 cell viability”

Assay: Human HepG2 cell viability assay in 384 well format
Type: toxicity, cell-based
Parameters: dose 125 nL, time 70.5 hour; cytotoxicity at 70.5 h: concentration not given beside the values
Settings: HepG2 cells, read-out: Inhibition

| Compound | cytotoxicity at 70.5 h [%] |
| --- | --- |
| Cc1ccc([C@@H]2CN(S(=O)(=O)N(C)C)C[C@H]2N(C)C)cc1 | -5.83 |
| CC(NC(=O)CCC(=O)c1cccs1)c1nnc2n1CCC2 (centres undefined) | -3.09 |
| Cc1cnc(CCNC(Cc2ccncc2)C(F)(F)F)s1 (centres undefined) | -7.12 |
| Cc1noc(C)c1C(=O)N1C[C@H]2CCC[C@@]2(COc2ccccn2)C1 | -11.3 |
| CC(NC(=O)Cn1cccnc1=O)c1ccc(C(F)(F)F)cc1 (centres undefined) | 12 |
| Cc1ccsc1-c1nnc(C2CCN(Cc3ccc(F)cc3)CC2)o1 | -21.5 |
| Cc1ccc(CN2CC[C@H]3CO[C@H](CN4CCN(C)CC4)[C@H]3C2)o1 | -7.33 |
| O=C(O)c1cc2c(nc1-c1cncnc1)CCN(C1CCOC1)CC2 (centres undefined) | 11.3 |
| COC1COC2(CCN(Cc3ccc(Cl)cc3)CC2)C1 (centres undefined) | 6.16 |
| CCc1noc(C(C)N2CCCN(Cc3noc(C4CC4)n3)CC2)n1 (centres undefined) | -13.5 |
| Cc1csc2c(=O)n(C(C)Cc3cccnc3)cnc12 (centres undefined) | -9.53 |
| CC(=O)NCCc1cn(-c2cc(F)ccc2C)cn1 | -8.56 |
| CC(C)CN1CCc2c(CN(C)Cc3ccco3)cncc2C1 | 4.58 |
| O=C1N(C2CCCCC2)C[C@H]2CN(C3CCC3)CCN12 | 9.88 |
| Cc1cc(N2CCC(NS(C)(=O)=O)CC2)nc(C(C)C)n1 | -4.49 |
| COc1ncccc1CNC(=O)c1ccco1 | 18 |
| CCC(O)CN1CCN(C(=O)c2cccc3c2OCC(=O)N3)CC1 (centres undefined) | 27.7 |
| COc1ccc(NC2CCCN(Cc3cnc(N(C)C)s3)C2)cc1 (centres undefined) | -6.11 |
| Cc1nn(CCNS(=O)(=O)c2ccccc2)c(C)c1Cl | -7.1 |
| Cc1cccc2c1CCN(c1cc(N3CCCC3CO)ncn1)C2 (centres undefined) | -10.5 |
| CN(C)c1cccc(C2CCCN2S(N)(=O)=O)c1 (centres undefined) | -1.57 |
| Cc1ncsc1C(=O)N1CCC(O)(CN2CCc3ccccc3C2)C1 (centres undefined) | 10.1 |
| CC1CCN(c2ncc3c(n2)CN(c2ccc(F)cc2)C3=O)CC1 | -2.02 |

| Compound | cytotoxicity at 70.5 h [%] |
| --- | --- |
| CC(C)(C)c1n[nH]c(C2CN(C(=O)CCc3cccs3)CCO2)n1 (centres undefined) | -8.77 |
| CCCn1nc(-c2nc(Cc3ccc(OC)cc3)no2)ccc1=O | -8.43 |
| CCC(Nc1nc(C(C)C)nc2c1cnn2C)c1ccc(O)cc1 (centres undefined) | 5.5 |
| Cc1cnn(CC2CCCN2Cc2nnc(C3CC3)o2)c1 (centres undefined) | 13.5 |
| CC(C)NS(=O)(=O)c1cc(C(=O)O)cc(-c2ccccc2C#N)c1 | 6.18 |
| Cc1nn(C)c(Cl)c1C1CCCN1c1ncnc2c1CCC2 (centres undefined) | 18 |
| CC1COCCN1Cc1nc(-c2cccc(Br)c2)no1 (centres undefined) | 13.8 |
| CCc1nccn1C1CCCN(C(=O)c2cccc3c2OCO3)C1 (centres undefined) | -16 |
| N#Cc1ccccc1CN1C[C@@H]2CC[C@H](C1)N(CC1CC1)C2=O | -7.57 |
| Cc1noc([C@@H]2C[C@H]3OCC[C@H]3N(S(=O)(=O)c3cccnc3)C2)n1 | -8.05 |
| CC(=O)Nc1cccc(-c2ccccc2CCN)c1 | -1.04 |
| Cc1cc(CN(C)Cc2cnc3c(c2)c(C)nn3C)no1 | 8.45 |
| c1cc(CCN2CCC(c3n[nH]c(C4CC4)n3)CC2)ccn1 | 11.7 |
| COc1ccc(CCC(=O)N(C(C)C)C2CCOCC2)cc1 | -6.93 |
| CN(CCCc1cnn(C)c1)Cc1cc2n(n1)CCCNC2 | -14.1 |
| O=C(NCCc1ccncc1)c1cccnc1OCC(F)(F)F | -1.85 |
| CCCc1n[nH]cc1C(=O)N1CCC(c2nccn2CCOC)CC1 | 19 |
| C[C@@H]1CN(C(=O)CSc2nncn2C)C[C@@]1(O)C1CC1 | -4.21 |
| CN(CCC#N)C(=O)CN1CCCC1c1ccsc1 (centres undefined) | 22.4 |
| O=C1CC(Cc2ccc(NC(=O)c3cccc(F)c3)cc2)C(=O)N1 (centres undefined) | -3.69 |
| COC[C@@H]1CCC[C@@]12CN(C(=O)N(C)C)CCO2 | 0.626 |
| Cn1cccc(NC(=O)COc2ccc(Cl)cc2)c1=O | -1.21 |
| Cc1noc(CN(C)Cc2cnc(N3CCOCC3)nc2)n1 | -6.57 |

| Compound | cytotoxicity at 70.5 h [%] |
| --- | --- |
| CC(C)c1nn(C)c(N(C)C)c1CNCc1ccccc1CO | 0.684 |
| Cn1nc(C(=O)NCc2cccnc2)c2c1CCS(=O)(=O)C2 | 24.8 |
| CCn1cnnc1C1CCN(C(=O)c2cccc(OC)c2OC)CC1 | -7.68 |
| CCOc1ncccc1CNC(=O)Nc1ccc(N(C)C)nc1 | 17.3 |
| CCN(Cc1ccoc1)C(C(N)=O)c1ccc(C#N)cc1 (centres undefined) | -1.21 |
| CS(=O)(=O)c1ccc(NC(=O)NC2(c3cccc(F)c3)CC2)cc1 | -7.54 |
| Cn1cccc1C(=O)N1CCC(c2nnc(Cn3ccnc3)n2C)CC1 | -5.24 |
| Cc1csc(C(Cc2ccsc2)NC(=O)Cn2cccnc2=O)n1 (centres undefined) | 14.5 |
| CCNC(=O)CN1CCSC2(CCCCC2)C1 | -11.1 |
| COc1ccc(C(=O)N2CC[C@@H]3[C@H](CC2)N(C)CCS3(=O)=O)cc1 | -7.15 |
| CC1=N[C@@]2(CC[C@@H]3CN(CC(=O)N(C)C)C[C@@H]32)C(=O)N1CC1CC1 | -2.19 |
| COc1ccccc1OCCN(C)Cc1c(C2CC2)[nH]c2ncccc12 | 20.9 |
| O=C(NCCNC1CCN(c2nccs2)CC1)c1cccs1 | -9.14 |
| CSC(C)(C)CNC(=O)NC1CCN(CC=C(C)C)CC1 | 31.2 |
| CC1CCCCN1C(=O)CCn1cnc2sccc2c1=O (centres undefined) | -5.84 |
| O=C(CN1CCc2ccccc21)NCc1ccc(Cl)cc1 | 3.34 |
| CN1CCC(Cc2noc(CC3CC3)n2)CC1 | -7.67 |
| CC(C)(O)CN1CCN(C(=O)c2cccn2Cc2cccnc2)CC1 | -8.17 |
| CC(C)c1nnc2ccc(N3CCCC(C(=O)Nc4nccs4)C3)nn12 (centres undefined) | -25.2 |
| COc1ccc(Br)c(NC(=O)NCc2ncnn2C)c1 | -9.33 |
| COC1COC2(CCN(C(=O)c3ccc4ccccc4c3)CC2)C1 (centres undefined) | -4.73 |
| CCCN(C)C(=O)c1ccc2c(c1)[nH]c(=O)n2CCOCC | 13.7 |
| O=C(N1CCOCC1)N1C(CN2CCOCC2)[C@]2(O)CC[C@H]1CC2 (some centres undefined) | 3.03 |

| Compound | cytotoxicity at 70.5 h [%] |
| --- | --- |
| Cc1nc(C)n(CC2CCCN2CC(=O)Nc2cc(C(C)C)no2)n1 (centres undefined) | -13.1 |
| CSCCC(=O)N1CCN(CC(C)O)CC1 (centres undefined) | -2.96 |
| Cc1ccc(=O)n(Cc2csc(N(C)C3CC3)n2)n1 | -10.2 |
| Cc1csc(CNC(=O)NC(C)c2ccc3c(c2)CCC(=O)N3)n1 (centres undefined) | -5.74 |
| COC(=O)c1c(Cl)c(C2CC2)nc2onc(C)c12 | 2.98 |
| O=C1CC2(CCN(S(=O)(=O)c3cccs3)C2)CN1c1ccccc1 (centres undefined) | -9.28 |
| Cn1cc(C(=O)NCCc2ccc(OC3CCCC3)cc2)ccc1=O | 1.62 |
| Cc1noc(C)c1CN(C)C(=O)NC1CCN(C2CC2)CC1 | -2.65 |
| COCCN1CCC2(CC1)CC(c1ccccc1)C(=O)N2C (centres undefined) | -7.45 |
| CC/C=C(/C)C(=O)N1CCN(C2=NCC(C)S2)CC1 (centres undefined) | 32.7 |
| CN1CC(=O)c2sc(NCCc3ccccc3)nc2C1 | 30 |
| Cc1cc(F)ccc1NCC(=O)NCC(F)(F)F | 0.946 |
| CC(C)CN1C[C@H]2CCN(C(=O)c3ccccn3)CC[C@H]2S1(=O)=O | -4.38 |
| CCn1cc(NC(=O)C2CCN(Cc3ccccc3C#N)CC2)cn1 | -1.61 |
| COC(=O)c1ccc(OC)c(OC23CCCN(CC2)C3)c1 (centres undefined) | -8.44 |
| O[C@H]1CN(c2nc(-c3ccccc3)no2)C[C@@H]1N1CCOCC1 | 6.13 |
| CN(CCc1cnn(C)c1)C(=O)C1COc2ccccc2C1 (centres undefined) | -10.5 |
| CC(C)c1nn(C)c(N(C)C)c1CNCC(O)c1ccccc1 (centres undefined) | -10.1 |
| CS(=O)(=O)c1cccc(C(=O)NCC2Cc3ccccc3O2)c1 (centres undefined) | -5.79 |
| COCCOc1ncccc1C(=O)N1CCCC1Cn1cc(C)cn1 (centres undefined) | -12 |
| CC(=O)N1CCCN(C(=O)NCCNc2cnccn2)CC1 | -2.47 |
| CN(C(=O)CC1=CCCCC1)C1CCCN(C2Cc3ccccc3C2)C1 (centres undefined) | -0.808 |
| CC(C)c1n[nH]c(C2CN(Cc3nnc(C4CC4)n3C)CCO2)n1 (centres undefined) | -7.72 |

| Compound | cytotoxicity at 70.5 h [%] |
| --- | --- |
| OC1(CN2CCCC2)COCCN(c2nnc(-c3ccccc3)s2)C1 (centres undefined) | 15.8 |
| CNC(=O)CN1CCOCC12CCN(C(=O)c1ccc(C)cc1)CC2 | -6.86 |
| COc1cnc(N2C[C@H](CO)C[C@H](CN3CCOCC3)C2)nc1 | -2.01 |
| Cc1cc(C)n(-c2ccc(CNCc3ccc(OC(C)C)cc3)cn2)n1 | -0.102 |
| CN(Cc1ccc2nsnc2c1)CC1(O)CCNC1 (centres undefined) | -5.93 |
| CN(C)C1COC2(CCN(Cc3ccc4c(c3)OCO4)CC2)C1 (centres undefined) | 2.59 |
| OCCOCc1nnn2c1CN(c1ncccn1)CCC2 | 8.18 |
| O=C(NCCOc1ccc2c(c1)CCC2)N1CCS(=O)(=O)CC1 | 23.8 |
| COc1ccc(C(C(=O)O)N2CCCN(C3CCCC3)CC2)cc1OC (centres undefined) | 18.5 |
| CN1C(=O)[C@H]2CC[C@@H]1CN(Cc1cccc(OCc3ccccn3)c1)C2 | -11.5 |
| CC(C)c1nnc2n1CC(CNCc1ccsc1)CC2 (centres undefined) | 2.53 |
| O=C(COc1ccc(-n2cccn2)nn1)N1CCCC1 | -2.51 |
| O=C(CNC(=O)C1CC1)Nc1c(F)cccc1Oc1ccccc1 | -3.31 |
| O=C1NCCN1C1CCN(Cc2coc(-c3ccc(F)cc3)n2)CC1 | -2.32 |
| COc1ncccc1NC(=O)NC(C)c1nncn1C (centres undefined) | -5.01 |
| Cc1nc(C2CCCN(C(=O)c3cc4c(s3)CCCC4)C2)no1 (centres undefined) | 5.35 |
| CCN(CC)C(=O)Nc1ccc(N2CCSCC2)cc1C | 8.14 |
| CCN(CC)c1nc2ccsc2c(=O)n1CCC(=O)NC1CCCC1 | -6.51 |
| CC(C)c1nc(CN(C)CC2CCN(CCO)CC2)no1 | -5.69 |
| COc1ccc(CN2CCC3(CC2)C(C(=O)O)CC(=O)N3C)cc1Cl (centres undefined) | -3.23 |
| CC(=O)N1CC2(CCN(Cc3ccc(Cl)cc3)CC2)Cc2ccccc21 | 9.92 |
| CC(C)Cc1cc(-c2cc(-c3ccc[nH]3)nc(N)c2C#N)n[nH]1 | 21.1 |
